Laboratory results reported in patent publication US12391683B2, “Therapeutic compounds and methods” (Actio Biosciences, Inc., priority 2022, dated 2025).

Key:
Type in all cases: cell-based
TRPM2 channels = target: T1, TRPM2 channels (Homo sapiens, UniProt O94759); test: TRP Family FLIPR Assay, TRPM2; settings: HEK293 cells (transient)
T1 construct: expressed in transfected cells; host or cells: HEK293 (transient)
Description: (§1) The compound of Example 5 was tested for selectivity against a panel of Human TRP family ion channels in a TRP Family FLIPR Assay as described below. • 1. TRPC3 channels (human TRPC3 variant 1 gene, expressed in HEK293 cells). • 2. TRPC4 channels (human TRPC4 gene, expressed in HEK293 cells). • 3. TRPC5 channels (human TRPC5 gene, expressed in HEK293 cells). • 4. TRPC6 channels (human TRPC6 gene, expressed in HEK293 cells). • 5. TRPM2 channels (human TRPM2 gene, transiently expressed in HEK293 cells). • 6. TRPM3 channels (human TRPM3 gene, transiently expressed in HEK293 cells). • 7. TRPM4 channels (human TRPM4 gene, expressed in CHO cells). • 8. […]
(§2) Data acquisition was performed via the FLIPR Control software supplied with the FLIPR System (MDS-AT) and data was analyzed using Microsoft Excel (Microsoft Corp., Redmond, WA) or GraphPad Prism. […]
(§3) [formula] where Base is the response at low concentrations of test article, Max is the maximum response at high concentrations, xhalf the EC50, or IC50, the concentration of test article producing either half-maximal activation or inhibition, and rate is the Hill coefficient. […] No assumptions about the fit parameters was made; the fit parameters were determined by the algorithm.
(§4) The effect of each test article was evaluated at eight (8) concentrations: 0.003, 0.01, 0.03, 0.1, 0.3, 1, 3 and 10 μM, n≤4 wells/concentration). […]

TRPC5 channels = target: T2, TRPC5 channels (Homo sapiens, UniProt Q9UL62); test: TRP Family FLIPR Assay, TRPC5; settings: HEK293 cells
T2 construct: expressed in transfected cells; host or cells: HEK293
T2 sequence (Q9UL62 1-973): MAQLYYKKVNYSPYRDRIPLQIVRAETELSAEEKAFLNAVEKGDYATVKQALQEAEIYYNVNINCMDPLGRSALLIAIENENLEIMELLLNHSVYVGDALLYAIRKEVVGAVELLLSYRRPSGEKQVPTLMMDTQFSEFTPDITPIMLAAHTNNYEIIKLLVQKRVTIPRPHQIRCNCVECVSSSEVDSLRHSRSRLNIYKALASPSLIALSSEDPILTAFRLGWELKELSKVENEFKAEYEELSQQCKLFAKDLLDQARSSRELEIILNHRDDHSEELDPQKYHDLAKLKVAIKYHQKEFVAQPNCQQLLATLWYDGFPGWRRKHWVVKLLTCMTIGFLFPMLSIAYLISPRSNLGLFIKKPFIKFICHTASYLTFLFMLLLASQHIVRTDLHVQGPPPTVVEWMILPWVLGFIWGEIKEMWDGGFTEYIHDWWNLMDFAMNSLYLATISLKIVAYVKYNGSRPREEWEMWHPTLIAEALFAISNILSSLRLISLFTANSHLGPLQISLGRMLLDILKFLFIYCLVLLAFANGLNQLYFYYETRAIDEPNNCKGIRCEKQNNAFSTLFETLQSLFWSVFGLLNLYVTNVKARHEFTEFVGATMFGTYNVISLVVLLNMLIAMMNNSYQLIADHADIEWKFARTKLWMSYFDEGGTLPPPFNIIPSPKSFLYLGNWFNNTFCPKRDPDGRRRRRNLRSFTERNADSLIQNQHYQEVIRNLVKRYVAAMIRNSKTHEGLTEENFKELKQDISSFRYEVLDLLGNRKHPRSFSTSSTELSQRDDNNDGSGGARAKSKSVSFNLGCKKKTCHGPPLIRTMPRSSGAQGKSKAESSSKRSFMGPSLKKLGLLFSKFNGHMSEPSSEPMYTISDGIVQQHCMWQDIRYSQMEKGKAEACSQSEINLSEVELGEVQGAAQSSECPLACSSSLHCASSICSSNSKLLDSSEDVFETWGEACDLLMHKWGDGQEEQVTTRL
Description: as §1, §2, §3, §4

TRPM3 channels = target: T3, TRPM3 channels (Homo sapiens, UniProt Q9HCF6); test: TRP Family FLIPR Assay, TRPM3; settings: HEK293 cells (transient)
T3 construct: expressed in transfected cells; host or cells: HEK293 (transient)
Description: as §1, §2, §3, §4

T3 sequence (Q9HCF6 whole entry): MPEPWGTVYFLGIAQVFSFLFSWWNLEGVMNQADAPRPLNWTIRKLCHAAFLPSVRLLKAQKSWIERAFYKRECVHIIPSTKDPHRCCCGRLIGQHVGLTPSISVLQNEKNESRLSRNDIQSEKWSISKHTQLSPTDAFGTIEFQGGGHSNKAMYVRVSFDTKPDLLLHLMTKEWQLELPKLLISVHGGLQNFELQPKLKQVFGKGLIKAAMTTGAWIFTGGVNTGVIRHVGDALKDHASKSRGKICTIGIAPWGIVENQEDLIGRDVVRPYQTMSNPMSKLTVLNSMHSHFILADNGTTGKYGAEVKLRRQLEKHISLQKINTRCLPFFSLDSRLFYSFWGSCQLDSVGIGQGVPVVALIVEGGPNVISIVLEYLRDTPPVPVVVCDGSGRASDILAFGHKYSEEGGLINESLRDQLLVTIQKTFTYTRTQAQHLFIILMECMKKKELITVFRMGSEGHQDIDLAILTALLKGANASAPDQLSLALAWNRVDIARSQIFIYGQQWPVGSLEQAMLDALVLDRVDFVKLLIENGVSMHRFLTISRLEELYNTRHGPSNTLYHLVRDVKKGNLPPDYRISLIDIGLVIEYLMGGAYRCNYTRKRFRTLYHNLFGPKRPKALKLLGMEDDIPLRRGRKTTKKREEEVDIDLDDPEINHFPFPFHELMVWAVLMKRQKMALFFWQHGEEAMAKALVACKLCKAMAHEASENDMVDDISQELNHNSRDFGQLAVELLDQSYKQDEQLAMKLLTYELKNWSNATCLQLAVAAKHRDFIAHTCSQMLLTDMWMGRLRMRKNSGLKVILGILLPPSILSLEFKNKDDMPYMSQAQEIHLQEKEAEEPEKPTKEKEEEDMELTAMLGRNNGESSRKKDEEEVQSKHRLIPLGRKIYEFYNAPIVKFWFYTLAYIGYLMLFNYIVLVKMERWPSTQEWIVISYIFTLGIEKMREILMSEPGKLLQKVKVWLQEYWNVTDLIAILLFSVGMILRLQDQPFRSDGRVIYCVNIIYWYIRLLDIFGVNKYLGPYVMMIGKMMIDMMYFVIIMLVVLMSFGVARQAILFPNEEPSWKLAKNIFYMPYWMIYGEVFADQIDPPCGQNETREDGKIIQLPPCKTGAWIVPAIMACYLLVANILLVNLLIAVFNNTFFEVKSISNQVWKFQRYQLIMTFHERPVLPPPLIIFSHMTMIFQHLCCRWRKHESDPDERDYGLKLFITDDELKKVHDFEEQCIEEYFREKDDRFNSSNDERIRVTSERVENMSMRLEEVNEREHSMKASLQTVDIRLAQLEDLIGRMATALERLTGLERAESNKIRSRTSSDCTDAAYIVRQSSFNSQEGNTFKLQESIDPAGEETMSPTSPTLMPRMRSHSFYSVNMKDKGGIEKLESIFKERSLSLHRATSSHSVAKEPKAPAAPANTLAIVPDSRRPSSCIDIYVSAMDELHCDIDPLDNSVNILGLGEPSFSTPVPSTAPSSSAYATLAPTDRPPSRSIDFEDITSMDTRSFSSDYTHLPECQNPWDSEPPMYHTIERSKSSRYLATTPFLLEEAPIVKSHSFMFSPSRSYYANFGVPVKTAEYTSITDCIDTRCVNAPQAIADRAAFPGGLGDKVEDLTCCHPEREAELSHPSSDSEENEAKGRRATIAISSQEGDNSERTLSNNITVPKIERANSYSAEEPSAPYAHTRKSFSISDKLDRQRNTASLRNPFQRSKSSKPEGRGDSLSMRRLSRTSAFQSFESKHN
T1 sequence (O94759 whole entry): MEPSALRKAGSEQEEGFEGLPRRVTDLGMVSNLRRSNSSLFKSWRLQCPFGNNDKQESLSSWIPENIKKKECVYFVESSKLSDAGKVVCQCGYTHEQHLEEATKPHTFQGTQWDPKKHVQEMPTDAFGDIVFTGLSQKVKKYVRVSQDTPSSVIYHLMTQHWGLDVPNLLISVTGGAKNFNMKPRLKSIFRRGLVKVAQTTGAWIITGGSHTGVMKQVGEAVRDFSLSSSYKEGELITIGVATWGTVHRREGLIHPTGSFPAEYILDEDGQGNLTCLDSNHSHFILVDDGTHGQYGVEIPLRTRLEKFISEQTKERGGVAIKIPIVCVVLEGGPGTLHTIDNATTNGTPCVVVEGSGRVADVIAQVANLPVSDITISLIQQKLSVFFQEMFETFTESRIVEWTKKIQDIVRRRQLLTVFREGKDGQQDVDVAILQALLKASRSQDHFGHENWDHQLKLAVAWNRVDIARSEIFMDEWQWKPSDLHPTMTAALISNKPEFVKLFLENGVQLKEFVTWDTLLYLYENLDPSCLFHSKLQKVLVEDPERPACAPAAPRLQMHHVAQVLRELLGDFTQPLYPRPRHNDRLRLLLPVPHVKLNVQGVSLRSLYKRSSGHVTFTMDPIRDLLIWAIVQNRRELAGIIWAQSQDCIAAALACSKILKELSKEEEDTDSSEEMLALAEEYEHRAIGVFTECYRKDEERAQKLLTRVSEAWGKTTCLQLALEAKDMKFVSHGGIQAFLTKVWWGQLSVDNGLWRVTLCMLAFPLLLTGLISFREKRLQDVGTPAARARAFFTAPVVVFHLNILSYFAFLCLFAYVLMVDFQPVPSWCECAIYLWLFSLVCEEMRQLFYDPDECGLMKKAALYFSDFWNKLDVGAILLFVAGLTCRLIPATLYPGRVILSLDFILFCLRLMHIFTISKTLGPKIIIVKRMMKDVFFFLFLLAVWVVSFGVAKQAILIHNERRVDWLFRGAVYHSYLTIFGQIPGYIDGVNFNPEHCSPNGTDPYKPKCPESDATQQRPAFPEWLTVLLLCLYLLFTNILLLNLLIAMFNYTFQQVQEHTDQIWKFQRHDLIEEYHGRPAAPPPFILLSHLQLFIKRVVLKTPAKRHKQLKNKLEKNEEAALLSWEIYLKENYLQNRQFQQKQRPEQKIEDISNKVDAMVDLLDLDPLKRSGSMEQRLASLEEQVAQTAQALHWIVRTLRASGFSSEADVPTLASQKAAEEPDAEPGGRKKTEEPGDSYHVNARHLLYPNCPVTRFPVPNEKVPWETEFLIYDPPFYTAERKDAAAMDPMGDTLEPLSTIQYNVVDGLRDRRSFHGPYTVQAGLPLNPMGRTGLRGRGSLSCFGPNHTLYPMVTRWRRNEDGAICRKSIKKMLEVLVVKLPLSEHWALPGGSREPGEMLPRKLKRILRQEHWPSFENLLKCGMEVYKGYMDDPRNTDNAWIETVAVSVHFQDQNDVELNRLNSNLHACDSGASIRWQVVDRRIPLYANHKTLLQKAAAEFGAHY

CC(C)(O)c1cnc(N2C[C@@]3(CC[C@@H](F)[C@](C)(Cn4cnc5ccc(C#N)cc54)C3)OC2=O)cn1 (single isomer, unassigned) [Example 5]
> 10 µM: EC50 (TRPM2 channels; agonist mode, vs EMAX of H2O2 333 μM, read-out: EC50 hTRPM2) | IC50 (TRPM2 channels; antagonist mode, activated with 300 μM H2O2, 0.003-10 μM, read-out: IC50 hTRPM2) | EC50 (TRPC5 channels; agonist mode, vs EMAX of (−)-Englerin A 30 μM, read-out: EC50 hTRPC5) | IC50 (TRPC5 channels; antagonist mode, activated with 0.5 μM (−)-Englerin A, 0.003-10 μM, read-out: IC50 hTRPC5) | EC50 (TRPM3 channels; agonist mode, vs EMAX of pregnenolone 100 μM, read-out: EC50 hTRPM3) | IC50 (TRPM3 channels; antagonist mode, activated with pregnenolone 30 μM, 0.003-10 μM, read-out: IC50 hTRPM3)
